The results in this text go back to paper PMC11237553, “De novo synthetic antimicrobial peptide design with a recurrent neural network” (Protein Science : A Publication of the Protein Society, 2024).

This test relates to Escherichia coli ATCC 25922. Description: Broth microdilution antimicrobial susceptibility testing (MIC/MBC). It is filed as cell-based. The settings on record: one maximum and one minimum data point dropped; for MIC, E. coli ATCC 25922: broth microdilution (CLSI, adapted for cationic AMPs), Mueller‐Hinton Broth, 5 ± 3 × 10^5 CFU/mL, 20–24 h at 37°C, test range 128 down to 0.25 μg/mL, lowest effective concentration range in three independent experiments in duplicate; for MBC, E. coli ATCC 25922: concentration killing 99.9% of the inoculum, plated from MIC wells, 24 h at 37°C, range in three independent experiments in duplicate. How it is done: Bacteria from frozen stocks were streaked onto non‐selective Columbia blood agar with 5% sheep blood (Oxoid) and incubated for 18–24 h at 37°C. The following day, 2–4 colonies were streaked onto a new agar plate and incubated for 18–24 h at 37°C to ensure uniform colony health prior to the assay. A standardized bacterial inoculum was prepared by suspending isolated colonies in Mueller‐Hinton Broth (MHB; Sigma‐Aldrich, St. Louis, MO, USA). The suspension was adjusted to an optical density of 0.08–0.1 at 600 nm, equivalent to a 0.5 McFarland standard of approximately 1–2 × 10^8 CFU/mL (CFU: colony forming units). The inoculum was then diluted 1:250 to achieve a final concentration of 5 ± 3 × 10^5 CFU/mL. The target bacterial density was confirmed by examining the total viability counts from the final inoculum.
Candidate AMPs were purchased from and synthesized by GenScript (Piscataway, NJ, USA). These were received in lyophilized format and stored at −20°C, and were suspended in sterile ultrapure water prior to testing.

As for KLPSIIKAAAKALPKLF [DeNo1034], the “MIC, E. coli ATCC 25922” value lay in the range of 16 to 32 µg/mL and the “MBC, E. coli ATCC 25922” value lay within 16 to 64 µg/mL.
As for RLPSIIPGIAGKLGGLLGGLLKGL [DeNo1027], the “MIC, E. coli ATCC 25922” value was found to be 32 µg/mL and the “MBC, E. coli ATCC 25922” value lay in the range of 32 to 64 µg/mL.
In the case of FLPKIAGKAAKKLPKIFCKITKKC [DeNo1019], the “MIC, E. coli ATCC 25922” value worked out at 16 µg/mL and the “MBC, E. coli ATCC 25922” value was found to be 16 µg/mL.
With MLPSIAGAAAKGLPKLFCKITKKC [DeNo1038], the “MIC, E. coli ATCC 25922” value stood at 64 µg/mL and the “MBC, E. coli ATCC 25922” value was in the range of 64 to 128 µg/mL.
On the same counts, the results for KIFGKILKKLLKKLLKKLLKKL [DeNo1013] are 16 µg/mL and 16 to 32 µg/mL.
In the case of “TLPDVAKNVAKNVAKTVLDTLKCKITGKC [DeNo1020]”, the “MIC, E. coli ATCC 25922” value is 64 to 128 µg/mL and the “MBC, E. coli ATCC 25922” value was in the range of 64 to 128 µg/mL.
As for FLPKIFKKIAKKL [DeNo1045], the “MIC, E. coli ATCC 25922” value came out at 64 µg/mL and the “MBC, E. coli ATCC 25922” value is 64 to 128 µg/mL.
